Patent US9771406B2, “Peptidic dual GLP-1/glucagon receptor agonists derived from exendin-4” (priority 2014, dated 2017)
Where two headings read alike, the source gives them in different places.

Key:
[1] = Solubility testing of exendin-4 derivatives (HPLC-UV of supernatant); format: physicochemical
Description: Prior to the testing of solubility and stability of a peptide batch, its purity (HPLC-UV) was determined. […] Therefore, solutions from solid samples were prepared in different buffer systems with a concentration of 10 mg/mL compound based on the previously determined % purity. HPLC-UV was performed after 2 h of gentle agitation from the supernatant, which was obtained by 20 min of centrifugation at 4500 rpm. […] This analysis also served as starting point (t0) for the stability testing.

[2] = Stability testing in solution, 7 days at 40° C. (% remaining peptide, HPLC-UV); format: physicochemical
Description: After that time course, the sample was centrifuged for 20 min at 4500 rpm and 0.2 μL of the supernatant were analysed with HPLC-UV.
For determination of the amount of the remaining peptide, the peak areas of the target compound at t0 and t7 were compared, resulting in “% remaining peptide”, following the equation % remaining peptide=[(peak area peptide t7)×100]/peak area peptide t0.
The stability is expressed as “% remaining peptide”.

human glucagon receptor = target: T1, human glucagon receptor (Homo sapiens, UniProt P47871); experiment: cAMP response of HEK-293 cells stably expressing human glucagon receptor (HTRF); format: cell-based; conditions: Table 6; cAMP formation; read-out: EC50 hGlucagon-R
T1 construct: expressed in transfected cells; host or cells: HEK-293
Description: (§1) cAMP content of cells was determined using a kit from Cisbio Corp. (cat. no. 62AM4PEC) based on HTRF (Homogenous Time Resolved Fluorescence). For preparation, cells were split into T175 culture flasks and grown overnight to near confluency in medium (DMEM/10% FBS). Medium was then removed and cells washed with PBS lacking calcium and magnesium, followed by proteinase treatment with accutase (Sigma-Aldrich cat. no. A6964). Detached cells were washed and resuspended in assay buffer (1×HBSS; 20 mM HEPES, 0.1% BSA, 2 mM IBMX) and cellular density determined. They were then diluted to 400000 cells/ml and 25 μl-aliquots dispensed into the wells of 96-well plates. For measurement, 25 μl of test compound in assay buffer was added to the wells, followed by incubation for 30 minutes at room temperature.
(§2) Potencies of peptidic compounds at the GLP-1, glucagon and GIP receptors were determined by exposing cells expressing human glucagon receptor (hGCG R), human GIP (hGIP R) and human GLP-1 receptor (hGLP-1 R) to the listed compounds at increasing concentrations and measuring the formed cAMP as described in Methods.

human GLP-1 receptor = target: T2, human GLP-1 receptor (Homo sapiens, UniProt P43220); experiment: cAMP response of HEK-293 cells stably expressing human GLP-1 receptor (HTRF); format: cell-based; conditions: Table 6; cAMP formation; read-out: EC50 hGLP-1R
T2 construct: expressed in transfected cells; host or cells: HEK-293
Description: as §1, §2

human GIP receptor = target: T3, human GIP receptor (Homo sapiens, UniProt P48546); experiment: cAMP response of HEK-293 cells stably expressing human GIP receptor (HTRF); format: cell-based; conditions: Table 6; cAMP formation; read-out: EC50 hGIP-R
T3 construct: expressed in transfected cells; host or cells: HEK-293
T3 sequence (P48546 22-466): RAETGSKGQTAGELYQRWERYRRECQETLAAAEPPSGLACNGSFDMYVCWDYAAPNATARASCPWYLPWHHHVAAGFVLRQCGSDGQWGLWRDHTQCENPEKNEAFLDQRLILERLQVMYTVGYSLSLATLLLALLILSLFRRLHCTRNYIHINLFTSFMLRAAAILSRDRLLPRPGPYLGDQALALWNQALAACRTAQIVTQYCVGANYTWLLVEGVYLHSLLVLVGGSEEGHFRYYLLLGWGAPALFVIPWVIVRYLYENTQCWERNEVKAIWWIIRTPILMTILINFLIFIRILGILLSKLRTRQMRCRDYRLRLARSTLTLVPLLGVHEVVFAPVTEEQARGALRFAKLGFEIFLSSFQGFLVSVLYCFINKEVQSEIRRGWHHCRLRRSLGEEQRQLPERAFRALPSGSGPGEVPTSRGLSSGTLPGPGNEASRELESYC
Description: as §1, §2

T1 sequence (P47871 26-477): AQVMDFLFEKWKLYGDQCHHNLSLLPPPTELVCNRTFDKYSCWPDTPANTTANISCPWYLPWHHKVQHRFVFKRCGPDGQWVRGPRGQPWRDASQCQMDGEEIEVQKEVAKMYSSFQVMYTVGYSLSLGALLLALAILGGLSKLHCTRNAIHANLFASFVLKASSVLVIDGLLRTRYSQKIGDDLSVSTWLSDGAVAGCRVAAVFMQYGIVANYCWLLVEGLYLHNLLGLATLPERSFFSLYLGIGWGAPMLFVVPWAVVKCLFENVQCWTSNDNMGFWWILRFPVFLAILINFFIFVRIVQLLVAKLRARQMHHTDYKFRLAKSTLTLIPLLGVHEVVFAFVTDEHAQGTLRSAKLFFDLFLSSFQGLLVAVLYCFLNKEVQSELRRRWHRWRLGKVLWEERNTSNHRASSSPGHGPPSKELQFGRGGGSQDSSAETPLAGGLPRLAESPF
T2 sequence (P43220 24-463): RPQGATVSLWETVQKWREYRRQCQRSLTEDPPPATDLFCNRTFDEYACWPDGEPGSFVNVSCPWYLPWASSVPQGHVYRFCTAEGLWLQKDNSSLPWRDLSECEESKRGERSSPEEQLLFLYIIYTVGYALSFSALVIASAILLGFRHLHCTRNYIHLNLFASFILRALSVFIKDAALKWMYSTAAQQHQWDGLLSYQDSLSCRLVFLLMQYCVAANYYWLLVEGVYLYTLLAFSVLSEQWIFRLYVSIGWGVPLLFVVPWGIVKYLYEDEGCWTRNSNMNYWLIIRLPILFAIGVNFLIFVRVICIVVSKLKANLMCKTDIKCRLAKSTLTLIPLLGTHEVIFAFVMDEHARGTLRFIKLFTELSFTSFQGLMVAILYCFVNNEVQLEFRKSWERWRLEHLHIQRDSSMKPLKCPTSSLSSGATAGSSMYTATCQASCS

Structure (SMILES) | EC50 (human glucagon receptor) | EC50 (human GLP-1 receptor) | EC50 (human GIP receptor) | further results
CCCCCCCCCCCCCCCCCC(=O)N[C@@H](CCC(=O)NCCCC[C@H](NC(=O)[C@H](CCC(N)=O)NC(=O)[C@H](CCCCN)NC(=O)[C@H](CO)NC(=O)[C@H](CC(C)C)NC(=O)[C@H](CC(=O)O)NC(=O)[C@H](CO)NC(=O)[C@@H](NC(=O)[C@H](Cc1ccccc1)NC(=O)[C@@H](NC(=O)CNC(=O)[C@H](Cc1c[nH]cn1)NC(=O)[C@H](CO)NC(=O)[C@@H](N)Cc1c[nH]cn1)[C@@H](C)O)[C@@H](C)O)C(=O)N[C@@H](CCC(=O)O)C(=O)N[C@@H](CCC(=O)O)C(=O)N[C@@H](CCC(=O)O)C(=O)N[C@@H](C)C(=O)N[C@H](C(=O)N[C@@H](CCCNC(=N)N)C(=O)N[C@@H](CC(C)C)C(=O)N[C@@H](Cc1ccccc1)C(=O)N[C@H](C(=O)N[C@@H](CCC(=O)O)C(=O)N[C@@H](Cc1c[nH]c2ccccc12)C(=O)N[C@@H](CC(C)C)C(=O)N[C@@H](CCCCN)C(=O)N[C@@H](C)C(=O)NCC(=O)NCC(=O)N1CCC[C@H]1C(=O)N[C@@H](CO)C(=O)N[C@@H](CO)C(=O)NCC(=O)N[C@@H](C)C(=O)N1CCC[C@H]1C(=O)N1CCC[C@H]1C(=O)N1CCC[C@H]1C(=O)N[C@@H](CO)C(N)=O)[C@@H](C)CC)C(C)C)C(=O)O [compound 10] | – | – | – | solubility at 2 h ([1]; pH 4.5, target concentration 10 mg/ml, 2 h agitation, read-out: Solubility (pH 4.5)): > 5000 µg/mL; solubility at 2 h ([1]; pH 7.4, target concentration 10 mg/ml, 2 h agitation, read-out: Solubility (pH 7.4)): > 5000 µg/mL; Stability (pH 4.5), % remaining peptide ([2]; pH 4.5, 7 days at 40° C. in solution): 92.7%; Stability (pH 7.4), % remaining peptide ([2]; pH 7.4, 7 days at 40° C. in solution): 93.4%
CCCCCCCCCCCCCCCCCC(=O)N[C@@H](CCC(=O)NCCCC[C@H](NC(=O)[C@H](CCC(N)=O)NC(=O)[C@H](CCCCN)NC(=O)[C@H](CO)NC(=O)[C@H](CC(C)C)NC(=O)[C@H](CC(=O)O)NC(=O)[C@H](CO)NC(=O)[C@@H](NC(=O)[C@H](Cc1ccccc1)NC(=O)[C@@H](NC(=O)CNC(=O)[C@H](Cc1c[nH]cn1)NC(=O)[C@@H](CO)NC(=O)[C@@H](N)Cc1c[nH]cn1)[C@@H](C)O)[C@@H](C)O)C(=O)N[C@@H](CCC(=O)O)C(=O)N[C@@H](CCC(=O)O)C(=O)N[C@@H](CCC(=O)O)C(=O)N[C@@H](C)C(=O)N[C@H](C(=O)N[C@@H](CCCNC(=N)N)C(=O)N[C@@H](CC(C)C)C(=O)N[C@@H](Cc1ccccc1)C(=O)N[C@H](C(=O)N[C@@H](CCC(=O)O)C(=O)N[C@@H](Cc1c[nH]c2ccccc12)C(=O)N[C@@H](CC(C)C)C(=O)N[C@@H](CCCCN)C(=O)N[C@@H](C)C(=O)NCC(=O)NCC(=O)N1CCC[C@H]1C(=O)N[C@@H](CO)C(=O)N[C@@H](CO)C(=O)NCC(=O)N[C@@H](C)C(=O)N1CCC[C@H]1C(=O)N1CCC[C@H]1C(=O)N1CCC[C@H]1C(=O)N[C@@H](CO)C(N)=O)[C@@H](C)CC)C(C)C)C(=O)O [compound 25] | 39.9 pM | 8.1 pM | 407 pM | –
CCCCCCCCCCCCCCCCCC(=O)N[C@@H](CCC(=O)NCCCC[C@H](NC(=O)[C@H](CCC(N)=O)NC(=O)[C@H](CCCCN)NC(=O)[C@H](CO)NC(=O)[C@H](CC(C)C)NC(=O)[C@H](CC(=O)O)NC(=O)[C@H](CO)NC(=O)[C@@H](NC(=O)[C@H](Cc1ccccc1)NC(=O)[C@@H](NC(=O)CNC(=O)[C@H](Cc1c[nH]cn1)NC(=O)C(C)(C)NC(=O)[C@@H](N)Cc1c[nH]cn1)[C@@H](C)O)[C@@H](C)O)C(=O)N[C@@H](CCC(=O)O)C(=O)N[C@@H](CCC(=O)O)C(=O)N[C@@H](CCC(=O)O)C(=O)N[C@@H](C)C(=O)N[C@H](C(=O)N[C@@H](CCCNC(=N)N)C(=O)N[C@@H](CC(C)C)C(=O)N[C@@H](Cc1ccccc1)C(=O)N[C@H](C(=O)N[C@@H](CCC(=O)O)C(=O)N[C@@H](Cc1c[nH]c2ccccc12)C(=O)N[C@@H](CC(C)C)C(=O)N[C@@H](CCCCN)C(=O)N[C@@H](C)C(=O)NCC(=O)NCC(=O)N1CCC[C@H]1C(=O)N[C@@H](CO)C(=O)N[C@@H](CO)C(=O)NCC(=O)N[C@@H](C)C(=O)N1CCC[C@H]1C(=O)N1CCC[C@H]1C(=O)N1CCC[C@H]1C(=O)N[C@@H](CO)C(N)=O)[C@@H](C)CC)C(C)C)C(=O)O [compound 7] | 5.8 pM | 6.5 pM | 25.6 pM | –
CCCCCCCCCCCCCCCC(=O)N[C@@H](CCC(=O)N[C@@H](CCC(=O)NCCCC[C@H](NC(=O)[C@H](CCC(N)=O)NC(=O)[C@H](CCCCN)NC(=O)[C@H](CO)NC(=O)[C@H](CC(C)C)NC(=O)[C@H](CC(=O)O)NC(=O)[C@H](CO)NC(=O)[C@@H](NC(=O)[C@H](Cc1ccccc1)NC(=O)[C@@H](NC(=O)CNC(=O)[C@H](CCC(N)=O)NC(=O)C(C)(C)NC(=O)[C@@H](N)Cc1c[nH]cn1)[C@@H](C)O)[C@@H](C)O)C(=O)N[C@@H](CCC(=O)O)C(=O)N[C@@H](CCC(=O)O)C(=O)N[C@@H](CCC(=O)O)C(=O)N[C@@H](C)C(=O)N[C@H](C(=O)N[C@@H](CCCNC(=N)N)C(=O)N[C@@H](CC(C)C)C(=O)N[C@@H](Cc1ccccc1)C(=O)N[C@H](C(=O)N[C@@H](CCC(=O)O)C(=O)N[C@@H](Cc1c[nH]c2ccccc12)C(=O)N[C@@H](CC(C)C)C(=O)N[C@@H](CCCCN)C(=O)N[C@@H](C)C(=O)NCC(=O)NCC(=O)N1CCC[C@H]1C(=O)N[C@@H](CO)C(=O)N[C@@H](CO)C(=O)NCC(=O)N[C@@H](C)C(=O)N1CCC[C@H]1C(=O)N1CCC[C@H]1C(=O)N1CCC[C@H]1C(=O)N[C@@H](CO)C(N)=O)[C@@H](C)CC)C(C)C)C(=O)O)C(=O)O [compound 24] | – | 4.5 pM | – | –
CCCCCCCCCCCCCCCCCC(=O)N[C@@H](CCC(=O)NCCCC[C@H](NC(=O)[C@H](CCC(N)=O)NC(=O)[C@H](CCCCN)NC(=O)[C@H](CO)NC(=O)[C@H](CC(C)C)NC(=O)[C@H](CC(=O)O)NC(=O)[C@H](CO)NC(=O)[C@@H](NC(=O)[C@H](Cc1ccccc1)NC(=O)[C@@H](NC(=O)CNC(=O)[C@H](Cc1c[nH]cn1)NC(=O)[C@@H](CO)NC(=O)[C@@H](N)Cc1c[nH]cn1)[C@@H](C)O)[C@@H](C)O)C(=O)N[C@@H](CCC(=O)O)C(=O)N[C@@H](CCC(=O)O)C(=O)N[C@@H](CCC(=O)O)C(=O)N[C@@H](C)C(=O)N[C@H](C(=O)N[C@@H](CCCNC(=N)N)C(=O)N[C@@H](CC(C)C)C(=O)N[C@@H](Cc1ccccc1)C(=O)N[C@H](C(=O)N[C@@H](CCC(=O)O)C(=O)N[C@@H](Cc1c[nH]c2ccccc12)C(=O)N[C@@H](CC(C)C)C(=O)N[C@@H](CCCCN)C(=O)N[C@@H](C)C(=O)NCC(=O)NCC(=O)N1CCC[C@H]1C(=O)N[C@@H](CO)C(=O)N[C@@H](CO)C(=O)NCC(=O)N[C@@H](C)C(=O)N1CCC[C@H]1C(=O)N1CCC[C@H]1C(=O)N1CCC[C@H]1C(=O)N[C@@H](CO)C(N)=O)[C@@H](C)CC)C(C)C)C(=O)O [compound 9] | – | – | – | solubility at 2 h ([1]; pH 4.5): > 5000 µg/mL; solubility at 2 h ([1]; pH 7.4): > 5000 µg/mL
CCCCCCCCCCCCCCCC(=O)N[C@@H](CCC(=O)N[C@@H](CCC(=O)NCCCC[C@H](NC(=O)[C@H](CCC(N)=O)NC(=O)[C@H](CCCCN)NC(=O)[C@H](CO)NC(=O)[C@H](CC(C)C)NC(=O)[C@H](CC(=O)O)NC(=O)[C@H](CO)NC(=O)[C@@H](NC(=O)[C@H](Cc1ccccc1)NC(=O)[C@@H](NC(=O)CNC(=O)[C@H](Cc1c[nH]cn1)NC(=O)[C@@H](CO)NC(=O)[C@@H](N)Cc1c[nH]cn1)[C@@H](C)O)[C@@H](C)O)C(=O)N[C@@H](CCC(=O)O)C(=O)N[C@@H](CCC(=O)O)C(=O)N[C@@H](CCC(=O)O)C(=O)N[C@@H](C)C(=O)N[C@H](C(=O)N[C@@H](CCCNC(=N)N)C(=O)N[C@@H](CC(C)C)C(=O)N[C@@H](Cc1ccccc1)C(=O)N[C@H](C(=O)N[C@@H](CCC(=O)O)C(=O)N[C@@H](Cc1c[nH]c2ccccc12)C(=O)N[C@@H](CC(C)C)C(=O)N[C@@H](CCCCN)C(=O)N[C@@H](C)C(=O)NCC(=O)NCC(=O)N1CCC[C@H]1C(=O)N[C@@H](CO)C(=O)N[C@@H](CO)C(=O)NCC(=O)N[C@@H](C)C(=O)N1CCC[C@H]1C(=O)N1CCC[C@H]1C(=O)N1CCC[C@H]1C(=O)N[C@@H](CO)C(N)=O)[C@@H](C)CC)C(C)C)C(=O)O)C(=O)O [compound 13] | 22.5 pM | – | 79 pM | –
